Results: patent publication US10309967B2, “Methods of diagnosing bipolar disorders and screening for therapeutic compounds” (National University Corporation Chiba University, priority 2015, dated 2019)
Entries after “also recorded” stand apart in the source; their conditions may differ.

Experiments:
[1] = test system: Idh3b; assay: Quantitative PCR of Idh3b mRNA in rat prefrontal cortex and hippocampus after Li or VPA; assay type: in vivo; conditions: normalized to Gapdh; for Idh3b gene expression: relative to control, mean ± SD
Description: (§1) Real-time quantitative RT-PCR analysis was conducted using an ABI7900HT Fast Real-Time PCR System (Applied Biosystems, Foster City, Calif.) in both human and rat samples. TaqMan probes and primers for the seven genes (ACO1, ACO2, IDH1, IDH2, IDH3A, IDH3B, IDH3G) and GAPDH (an internal control) (Table 11) were TAQMAN® Gene Expression Assays products (Applied Biosystems).
(§2) The CSF concentrations of 116 major metabolites from several pathways were measured. […] Male Sprague-Dawley rats (Japan SLC Inc., Shizuoka, Japan) aged 6 weeks old were used in this study. All rats were housed in groups of three per cage in a room maintained at 23° C.±2° C. and 60±10% humidity with a 12/12 hour light/dark cycle (lights on at 7:00 a.m.). The rats were given free access to food and water. Animal care and use were conducted in accordance with the Institutional Guidelines for Animal Care and Use of Otsuka Pharmaceutical Co., Ltd. (Tokushima, Japan). […] The drinking water was replaced twice a week. […] All animals were decapitated on day 30 after CSF sampling, and brain regions (prefrontal cortex, and hippocampus) were dissected rapidly on ice. Metabolomic analyses of rat CSF samples were performed as described herein.
(§3) Prefrontal cortex, and hippocampus were dissected rapidly on ice and stored in RNA later (Applied Biosystems) at 4° C. until used for RNA isolation, cDNA synthesis and polymerase chain reaction (PCR) amplification. The total RNA was extracted using the RNeasy Lipid Tissue Mini Kit (QIAGEN) following the instructions of manufacturer. RNA yield and integrity was assessed using Nanodrop (NanoDrop Technologies). Reverse transcription of total RNA was done using the […] VILO cDNA Synthesis Kit (Invitrogen). In the quantitative PCR, the cDNA was amplified using commercial TaqMan assays (Applied Biosystems) for rat Idh3A (Rn00586270_m1), Idh3B (Rn00504589_g1), Aco1 (Rn00569045_m1), Aco2 (Rn00577876_m1) and Gapdh (Rn01775763_g1) with an ABI 7500 Fast Real-Time PCR system (Applied Biosystems). (Table 17) Reactions were performed in triplicates. All reactions were normalized to Gapdh and presented as relative expression changes compared to control.

[2] = test system: Aco1; assay: Quantitative PCR of Aco1 mRNA in rat prefrontal cortex and hippocampus after Li or VPA; assay type: in vivo; conditions: normalized to Gapdh; for Aco1 gene expression: relative to control, mean ± SD
Description: as §1, §2, §3

[3] = test system: serum samples from rats; assay: Metabolomics of serum samples from rats chronically treated with Li or VPA; assay type: in vivo, rat; conditions: chronic (4-weeks) treatment
Description: Data from human samples are presented as mean±standard deviation (SD). Statistical analysis was performed using SAS software version 9.3 (SAS Institute, Cary, N.C.). Analyses of metabolites between control and BD groups were performed using unpaired t-tests and Wilcoxon rank sum tests. A logistic regression model with a stepwise selection method was used for the multivariate analysis and multiple regression analysis (consistent with description in Allen et al., Technometrics. 1974; 16(1):125-127; and Miller et al., Chapman and Hall. 1974, which are incorporated in their entireties by reference herein). […] The Mann-Whitney U test (two-tailed) was used to evaluate changes in expression levels of the ACO and IDH genes between control and BD groups. Rat data are presented as mean±SD. To determine the effects of drug treatment, a one-way ANOVA, followed by the post hoc Dunnett's test was used. P values of less than 0.05 for two-tailed tests were considered statistically significant.
as §2
The serum concentrations of 116 major metabolites from several pathways were measured.

[4] = rat prefrontal cortex and hippocampus, chronic (4-weeks) treatment, vs control, sodium salt

CCCC(CCC)C(=O)[O-].[Na+] [VPA, valproic acid sodium salt]
Idh3b gene expression ([1]; rat hippocampus): 1.1512 ± 0.1377 | mRNA levels of Idh3b [1, 4]: did not alter; also recorded: not altered | Idh3b gene expression ([1]; rat prefrontal cortex): 1.2265 ± 0.2128 | Aco1 gene expression ([2]; rat hippocampus): 1.0956 ± 0.0520 | mRNA levels of Aco1 [2, 4]: did not alter; also recorded: not altered | Aco1 gene expression ([2]; rat prefrontal cortex): 1.1550 ± 0.1237 | 2,3-Diphosphoglyceric acid Mean ([3]; rat serum): 2.1 | 2-Hydroxyglutaric acid Mean ([3]; rat serum): 1.5 | 2-Oxoglutaric acid Mean ([3]; rat serum): 29 | 2-Oxoisovaleric acid Mean ([3]; rat serum): 15 | 2-Phosphoglyceric acid Mean ([3]; rat serum): 0.6 | 3-Phosphoglyceric acid Mean ([3]; rat serum): 5.0 | ADP-ribose Mean ([3]; rat serum): 0.13 | AMP Mean ([3]; rat serum): 0.4 | ATP Mean ([3]; rat serum): 4.2 | Ala Mean ([3]; rat serum): 757 | Arg Mean ([3]; rat serum): 206 | Argininosuccinic acid Mean ([3]; rat serum): 0.4 | Asn Mean ([3]; rat serum): 77 | Asp Mean ([3]; rat serum): 12 | Betaine Mean ([3]; rat serum): 287 | Carnitine Mean ([3]; rat serum): 78 | Carnosine Mean ([3]; rat serum): 0.2 | Choline Mean ([3]; rat serum): 13 | Citric acid Mean ([3]; rat serum): 151 | Citrulline Mean ([3]; rat serum): 92 | Creatine Mean ([3]; rat serum): 211 | Creatinine Mean ([3]; rat serum): 25 | Cystathionine Mean ([3]; rat serum): 1.1 | Fructose 1,6-diphosphate Mean ([3]; rat serum): 0.3 | Fructose 6-phosphate Mean ([3]; rat serum): 0.09 | Fumaric acid Mean ([3]; rat serum): 2.6 | GDP Mean ([3]; rat serum): 0.4 | GMP Mean ([3]; rat serum): 0.07 | GTP Mean ([3]; rat serum): 1.9 | Gln Mean ([3]; rat serum): 1,001 | Glu Mean ([3]; rat serum): 173 | Glucose 6-phosphate Mean ([3]; rat serum): 0.6 | Glutathione (GSSG) Mean ([3]; rat serum): 0.4 | Gly Mean ([3]; rat serum): 488 | Glycerol 3-phosphate Mean ([3]; rat serum): 3.5 | Glycolic acid Mean ([3]; rat serum): 11 | His Mean ([3]; rat serum): 90 | Hydroxyproline Mean ([3]; rat serum): 65 | IMP Mean ([3]; rat serum): 0.13 | Ile Mean ([3]; rat serum): 119 | Isocitric acid Mean ([3]; rat serum): 8.2 | Lactic acid Mean ([3]; rat serum): 2,751 | Leu Mean ([3]; rat serum): 207 | Lys Mean ([3]; rat serum): 696 | Malic acid Mean ([3]; rat serum): 12 | Met Mean ([3]; rat serum): 53 | Mevalonic acid Mean ([3]; rat serum): 1.5E−04 | N,N-Dimethylglycine Mean ([3]; rat serum): 11 | N-Carbamoylaspartic acid Mean ([3]; rat serum): 0.02 | NAD^+ Mean ([3]; rat serum): 1.1 | Ornithine Mean ([3]; rat serum): 76 | Phe Mean ([3]; rat serum): 65 | Phosphocreatine Mean ([3]; rat serum): 0.9 | Pro Mean ([3]; rat serum): 220 | Putrescine Mean ([3]; rat serum): 0.3 | Pyruvic acid Mean ([3]; rat serum): 107 | Ribose 1-phosphate Mean ([3]; rat serum): 0.4 | Ribose 5-phosphate Mean ([3]; rat serum): 0.04 | Ribulose 5-phosphate Mean ([3]; rat serum): 0.2 | Sarcosine Mean ([3]; rat serum): 5.5 | Ser Mean ([3]; rat serum): 319 | Succinic acid Mean ([3]; rat serum): 10 | Thr Mean ([3]; rat serum): 217 | Trp Mean ([3]; rat serum): 110 | Tyr Mean ([3]; rat serum): 89 | UDP-glucose Mean ([3]; rat serum): 0.6 | Urea Mean ([3]; rat serum): 5,050 | Uric acid Mean ([3]; rat serum): 25 | Val Mean ([3]; rat serum): 290 | cAMP Mean ([3]; rat serum): 0.05 | cGMP Mean ([3]; rat serum): 0.02 | cis-Aconitic acid Mean ([3]; rat serum): 3.1 | β-Ala Mean ([3]; rat serum): 1.9 | serum levels of N-acetylglutamic acid ([3]; rats, vs control): not altered | serum levels of arginine ([3]; rats, vs control): not altered | serum levels of pyruvic acid ([3]; rats, vs control): not altered | serum levels of serine ([3]; rats, vs control): not altered | serum levels of β-alanine ([3]; rats, vs control): not altered
